The text below walks through data of US20100267731A1, “USE OF TRANSFORMING GROWTH FACTOR-B RECEPTOR INHIBITORS TO SUPPRESS OCULAR SCARRING” (Summa Health Systems, LLC, priority 2009, published 2010).

The subject of series [1] is New Zealand white rabbits. Description: Post surgery IOP in vivo. Also noted: species or system New Zealand white rabbit. To be noted: rabbit GFS, versus untreated eye. On the procedure: IOP for the animals in groups A-D was measured with a TONO-PEN AVIA® (Reichert Ophthalmic Instruments, Depew, N.Y.) by gently touching the cornea of each subject after topical anesthesia was applied with 0.5% proparacaine. The IOP reading was omitted if its confidence interval was less than 95%. An average of three measurements was taken to deduce IOP.

In series [2] the test system is New Zealand white rabbits. The experiment in a line: Hematoxylin and eosin staining ex vivo of eyes after GFS. It is filed as in vivo. The following applies: for infiltration of inflammatory cells and scarring in the subconjunctival space: H&E, five days after surgery. On the procedure:
Five days after surgery, the subjects in Groups A-D were euthanized with Fatal-plus™ (Vortech Pharmaceutical, Dearborn, Mich.) following the manufacturer's instructions. The subject's eyes were enucleated with palpebral margins to keep the conjunctiva epithelium and the subconjunctival space intact. Enucleated eyes were fixed with 10% buffered formalin and 5 μm thick paraffin sections were prepared. The sections were stained with hematoxylin and eosin (H&E) for histological examination, and images were captured using an Olympus DX51 light microscope and DP controller (Olympus, Tokyo, Japan).

Series [3] relates to subconjunctival tissue fibroblast outgrowth. The experiment in a line: Subconjunctival tissue fibroblast outgrowth assay ex vivo. In kind it is cell-based, New Zealand white rabbit. To be noted: for cell outgrowth length, explant from 180° control: 180° from the surgical site (180° control). The procedure:
Under an ophthalmic surgical microscope, subconjunctival tissues were dissected from the surgical site and 180 (6-o'clock position) from the surgical site (the 180° control). Each biopsy specimen (explant) was placed in a 25 cm^2 cell culture flask with complete media. […] The cell outgrowth, in mm, from the edge of each explant was observed, and the length of the outgrowth in 4 quadrants was measured.

Series [4] has as its system cultured rabbit subconjunctival fibroblasts. The experiment in a line: Toxicity of ALK-5 inhibitors in vitro (cell count by hemocytometer). It is filed as cell-based, New Zealand white rabbit. The following applies: 10.0 of inhibitor pre-treated one hour, then 2 ng/ml TGF-β2 up to 48 hours. On the procedure:
Sample fibroblasts were obtained from New Zealand white rabbit eyes. The fibroblasts were derived from the subconjunctival tissues isolated from the eyes of the subjects. The cells were maintained in 25 cm^2 flask using 2 ml of medium composed of Eagle's minimal essential medium, 10% fetal bovine serum, 5% calf serum, essential and nonessential aminoacids, and antibiotics. When the cells reached confluence, they were trypsinized and passaged.
Three samples of the fibroblasts were prepared. The first sample, sample A, included fibroblast cultures treated with 2 ng/ml of TGF-β2 for up to 48 hours. The second sample, sample B, included fibroblast cultures that were untreated. The third sample included fibroblast cultures pre-treated with 2 ml of a medium including […] of ALK-5 inhibitor SB-505124 for one hour, and were additionally treated with additional 2 ng/ml of TGF-β2 (R&D Systems, Minneapolis, Minn.) for up to 48 hours.
The number of cells were counted using a hemocytometer (Hausser Scientific, Horsham, PC) after trypsinization. […] Therefore, in addition to inhibiting the expression of TGF-β2 and mitigating the ocular scarring that may result after GFS by using an ALK-5 type inhibitor, the ALK-5 inhibitor appears to have the added benefit of not destroying healthy cells around the surgical site that prevent post-surgery infection.

[5] abbreviates: explants taken five days after GFS.

Take `CO[C@@]12[C@H](COC(N)=O)C3=C(C(=O)C(C)=C(N)C3=O)N1C[C@@H]1N[C@@H]12` [MMC, mitomycin C]: the “period IOP of treated eyes was lowered after GFS (in words)” value in series [1] (MMC control) is listed as “throughout the observation period”. In series [2], the “infiltration of inflammatory cells and scarring in the subconjunctival space” value is “only a few inflammatory cells and mild scarring”. Also, the “cell outgrowth length, explant from 180° control” value in series [3] (over 18 days) is “approximately 7 mm”.

Consider `Cc1cccc(-c2[nH]c(C(C)(C)C)nc2-c2ccc3c(c2)OCO3)n1` [SB-505124], for which, in series [4], the “cell number versus samples untreated or treated with TGF-β2 alone” value is listed as “no measurable difference in cell number”. Further, in series [1] (SB-505124 tablet), the “time IOP of treated eyes was lowered after GFS” value is recorded as “up to 10 days”. For the same compound, the “infiltration of inflammatory cells and scarring in the subconjunctival space” value in series [2] is “only a few inflammatory cells and mild scarring”. In series [2] (rabbit, in vivo), the “signs of tissue toxicity” value was “no or very low signs of tissue toxicity” and the subconjunctival blood vessels entry was “seen”. Moreover, in series [3] (over 18 days), the “cell outgrowth length, explant from 180° control” value was “approximately 7 mm”. Also, in series [3] (setting [5]), the “cell outgrowth from the edge of the subconjunctival tissue explant (qualitative)” value is “robust” and the “difference in cell outgrowth versus untreated group” value is recorded as “no significant difference”. Moreover, the “cell outgrowth length, explant from surgical site” value in series [3] (surgical site, over 18 days) is on record as “approximately 7 mm”.
